Calls of active or inactive are those of the source.
Experiments:
Bcl-2-related protein A1 [1] = target: T1, Bcl-2-related protein A1 (Mus musculus, UniProt Q07440); assay: Bfl-1 binding inhibitors, SAR follow-up, biochemical, fluorescence polarization (AID 1070)
T1 sequence (Q07440 whole entry): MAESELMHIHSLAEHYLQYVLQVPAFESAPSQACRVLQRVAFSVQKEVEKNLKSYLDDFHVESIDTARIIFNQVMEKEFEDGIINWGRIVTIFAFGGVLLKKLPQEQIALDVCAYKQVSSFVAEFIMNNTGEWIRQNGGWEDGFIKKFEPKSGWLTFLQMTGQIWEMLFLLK

Bcl-2-related protein A1 [2] = target: T1, Bcl-2-related protein A1; assay: Bfl-1 inhibitors blocking BH3 peptide binding, confirmation, biochemical, TR-FRET, mouse Bfl-1 (AID 621);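 also: TR-FRET binding of GST-Bfl-1 to FITC-labelled Bid peptide via terbium antibody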
[3] = M. tuberculosis H37Rv growth inhibitors, H37Rv strain (AID 1626); type: functional
[4] = cytotoxicity in KRAS-transformed pancreatic duct cells, primary screen, cell-based, fluorescence, HTS (AID 431); type: functional; settings: Homo sapiens;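 also: cell line used: HPDE-C7K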
[5] = cytotoxicity in HPDE-C7 cells, cell-based, fluorescence, HTS (AID 430); type: functional; settings: Homo sapiens
[6] = P. falciparum late gametocyte killing, dose response, luminescence (AID 1117278); type: functional, cell-based;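 also: gametocytes exposed to compound for 24 hours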
[7] = Jurkat T cell cytotoxicity, dose response, cytotoxicity control for P. falciparum gametocyte viability project, luminescence (AID 1117277); type: functional, cell-based;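 also: potency reflects loss of cellular ATP meaning fewer viable cells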
H4 = assay: Luminescence Cell-Based Dose Response HTS to Identify Activators of 5'UTR Stem-Loop Driven Prion Protein mRNA Translation in H4 Neuroglioblastoma Cells. [Related pubchem assays: 1829 (Project Summary), 1814 (Primary HTS)]; type: functional; settings: Homo sapiens
[8] = Luminescence Cell-Based Dose Response HTS to Identify Activators of Luciferase Translation or Activity in H4 […] Cells. [Related pubchem assays: 1829 (Project Summary), 1814 (Primary HTS)]; type: functional
[9] = target: T2, Corticotropin-releasing factor receptor 2/Corticotropin-releasing factor-binding protein (Homo sapiens, UniProt P24387+Q13324); assay: activators of CRF receptor 2 with binding protein – uHTS hits, confirmation (AID 602473); type: functional; settings: read-out: EC50_Mean
T2 sequence (Q13324 whole entry): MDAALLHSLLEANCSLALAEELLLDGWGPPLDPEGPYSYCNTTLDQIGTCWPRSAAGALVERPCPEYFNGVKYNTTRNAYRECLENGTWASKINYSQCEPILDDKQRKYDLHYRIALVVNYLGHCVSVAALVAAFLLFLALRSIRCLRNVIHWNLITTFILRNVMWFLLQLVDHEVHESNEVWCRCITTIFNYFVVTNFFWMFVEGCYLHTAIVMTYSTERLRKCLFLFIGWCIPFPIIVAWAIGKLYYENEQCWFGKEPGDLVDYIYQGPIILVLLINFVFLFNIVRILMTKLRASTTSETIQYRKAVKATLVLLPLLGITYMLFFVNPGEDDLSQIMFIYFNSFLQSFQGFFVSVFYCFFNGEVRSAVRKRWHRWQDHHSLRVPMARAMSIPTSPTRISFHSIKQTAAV
T2 sequence (P24387 whole entry): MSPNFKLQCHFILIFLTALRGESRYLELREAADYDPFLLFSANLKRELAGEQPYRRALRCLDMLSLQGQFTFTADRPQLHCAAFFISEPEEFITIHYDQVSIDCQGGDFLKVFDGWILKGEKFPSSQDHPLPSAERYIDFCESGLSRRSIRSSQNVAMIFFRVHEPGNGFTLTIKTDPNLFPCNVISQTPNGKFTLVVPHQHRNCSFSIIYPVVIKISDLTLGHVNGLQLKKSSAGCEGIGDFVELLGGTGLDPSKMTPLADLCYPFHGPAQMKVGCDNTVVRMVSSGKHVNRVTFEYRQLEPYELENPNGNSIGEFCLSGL

[10] = Luminescence Cell-Based Dose Confirmation to Identify Activators of 5'UTR Stem-Loop Driven Alpha-Synuclein mRNA Translation in H4 Neuroglioblastoma Cells. [Related pubchem assays: 1829 (Project Summary), 1814 (Primary HTS)]; type: functional
[11] = Luminescence Cell-Based Dose Response to Identify Activators of 5'UTR Stem-Loop Driven Prion Protein mRNA Translation in H4-C Neuroglioblastoma Cells. [Related pubchem assays: 1829 (Project Summary), 1814 (Primary HTS)]; type: functional
[12] = Luminescence Cell-Based Dose Response to Identify Activators of Luciferase Translation or Activity in H4-C Neuroglioblastoma Cells. [Related pubchem assays: 1829 (Project Summary), 1814 (Primary HTS)]; type: functional
[13] = target: T3, RNA-binding protein pos-1 (Caenorhabditis elegans, UniProt G5EF15); assay: inhibitors of POS-1/mex-3 RNA binding, dose response, biochemical, fluorescence polarization (AID 1964);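 also: purified POS-1 fused to maltose binding protein made in E. coli; potency of compounds blocking POS-1 binding to fluorescent RNA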
T3 sequence (G5EF15 whole entry): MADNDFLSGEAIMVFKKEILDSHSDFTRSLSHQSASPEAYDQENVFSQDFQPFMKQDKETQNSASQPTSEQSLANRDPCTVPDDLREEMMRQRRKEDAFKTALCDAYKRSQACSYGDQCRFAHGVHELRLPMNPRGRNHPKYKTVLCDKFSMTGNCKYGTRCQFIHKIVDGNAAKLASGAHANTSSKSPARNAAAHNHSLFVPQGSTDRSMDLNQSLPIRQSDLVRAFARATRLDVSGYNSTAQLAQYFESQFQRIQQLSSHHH

[14] = target: Bifunctional protein GlmU (Mycobacterium tuberculosis, UniProt P9WMN3); assay: Inhibitors of Mycobacterial Glucosamine-1-phosphate acetyl transferase (GlmU). Secondary screen.; set-up: species or system Mycobacterium tuberculosis H37Rv
Genome polyprotein = Genome polyprotein (dengue virus type 2, UniProt P29990); assay: Dengue-2 NS5 methyltransferase inhibitors, primary screen, biochemical, confirmation dose response (AID 588689); type: functional
[15] = target: T4, Zinc finger protein mex-5 (Caenorhabditis elegans, UniProt Q9XUB2); assay: MEX-5/TCR-2 RNA interaction inhibitors, dose response, biochemical, C. elegans, fluorescence polarization (AID 1960)
T4 sequence (Q9XUB2 whole entry): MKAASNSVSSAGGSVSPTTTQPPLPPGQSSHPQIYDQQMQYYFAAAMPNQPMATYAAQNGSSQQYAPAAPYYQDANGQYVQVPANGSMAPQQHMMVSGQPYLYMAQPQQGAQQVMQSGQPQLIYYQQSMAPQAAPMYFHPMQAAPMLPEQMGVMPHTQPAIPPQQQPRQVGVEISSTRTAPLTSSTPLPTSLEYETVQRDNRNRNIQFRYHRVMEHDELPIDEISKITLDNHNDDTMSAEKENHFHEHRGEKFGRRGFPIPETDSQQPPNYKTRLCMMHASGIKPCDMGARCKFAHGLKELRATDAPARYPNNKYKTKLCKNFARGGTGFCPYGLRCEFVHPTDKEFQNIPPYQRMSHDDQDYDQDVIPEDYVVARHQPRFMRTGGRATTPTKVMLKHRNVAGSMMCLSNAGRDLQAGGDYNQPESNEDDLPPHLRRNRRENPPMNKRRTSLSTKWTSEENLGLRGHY

[16] = inhibitors of Vif binding to APOBEC3G peptide, primary screen, biochemical, TR-FRET, GST-Vif 1-94, biotin-A3G peptide, dose response retest (AID 1117319); type: functional;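 also: TR-FRET signal of purified GST-Vif binding a biotinylated A3G peptide; inhibitors lower the FRET signal by blocking Vif and A3G binding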
Cytochrome P450 3A4 = Cytochrome P450 3A4 (Homo sapiens, UniProt P08684);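 also: CYP3A4 tested as one member of a cytochrome P450 panel screen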
Cytochrome P450 2D6 = Cytochrome P450 2D6 (Homo sapiens, UniProt P10635);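 also: CYP2D6 member of a cytochrome P450 panel assay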
[17] = HEp-2 cell cytotoxicity, dose response, cytotoxicity control for RSV inhibitor project, HTS (AID 2410); type: functional; settings: human respiratory syncytial virus
Protein Tat = Protein Tat (Human immunodeficiency virus type 1 group M subtype B (isolate HXB2)(HIV-1), UniProt P04608); type: functional;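 also: tat binding to TAR RNA read out by fluorescence polarization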
Estrogen receptor = target: T5, Estrogen receptor (Homo sapiens, UniProt P03372);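 also: potency for inhibiting coactivator peptide recruitment to the receptor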
T5 sequence (P03372 whole entry): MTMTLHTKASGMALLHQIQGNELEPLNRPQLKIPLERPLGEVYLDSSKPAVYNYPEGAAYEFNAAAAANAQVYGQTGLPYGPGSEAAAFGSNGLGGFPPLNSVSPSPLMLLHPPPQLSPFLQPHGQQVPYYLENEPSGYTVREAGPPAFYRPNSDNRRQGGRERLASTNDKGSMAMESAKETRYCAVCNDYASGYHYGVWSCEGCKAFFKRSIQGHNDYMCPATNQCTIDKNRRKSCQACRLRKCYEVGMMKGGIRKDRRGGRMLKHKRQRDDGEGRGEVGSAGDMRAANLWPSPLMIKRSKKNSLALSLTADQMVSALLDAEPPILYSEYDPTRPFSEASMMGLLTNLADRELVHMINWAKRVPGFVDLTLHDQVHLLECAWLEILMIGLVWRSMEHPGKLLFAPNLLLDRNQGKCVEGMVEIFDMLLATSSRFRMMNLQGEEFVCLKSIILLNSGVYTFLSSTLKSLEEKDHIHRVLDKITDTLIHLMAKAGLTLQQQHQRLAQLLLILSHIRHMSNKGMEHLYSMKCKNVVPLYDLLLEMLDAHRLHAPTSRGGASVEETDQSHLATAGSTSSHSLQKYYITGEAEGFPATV

[18] = target: T6, Polyadenylate-binding protein 1 (Homo sapiens, UniProt P11940); assay: PABP1 MLLE–PAM2 interaction inhibitors, dose response, miRNA deadenylation inhibitor project, biochemical, fluorescence polarization, Cy5-PAM2 peptide, secondary (AID 602260); type: functional; settings: read-out: IC50_Mean
[19] = target: T7, Microphthalmia-associated transcription factor (Homo sapiens, UniProt O75030); assay: TRPM1 promoter luciferase signal decrease, dose response, MITF inhibitor project, cell-based, SK-MEL-5, cherry-picked, set 3 (AID 493073); type: functional
T7 sequence (O75030 whole entry): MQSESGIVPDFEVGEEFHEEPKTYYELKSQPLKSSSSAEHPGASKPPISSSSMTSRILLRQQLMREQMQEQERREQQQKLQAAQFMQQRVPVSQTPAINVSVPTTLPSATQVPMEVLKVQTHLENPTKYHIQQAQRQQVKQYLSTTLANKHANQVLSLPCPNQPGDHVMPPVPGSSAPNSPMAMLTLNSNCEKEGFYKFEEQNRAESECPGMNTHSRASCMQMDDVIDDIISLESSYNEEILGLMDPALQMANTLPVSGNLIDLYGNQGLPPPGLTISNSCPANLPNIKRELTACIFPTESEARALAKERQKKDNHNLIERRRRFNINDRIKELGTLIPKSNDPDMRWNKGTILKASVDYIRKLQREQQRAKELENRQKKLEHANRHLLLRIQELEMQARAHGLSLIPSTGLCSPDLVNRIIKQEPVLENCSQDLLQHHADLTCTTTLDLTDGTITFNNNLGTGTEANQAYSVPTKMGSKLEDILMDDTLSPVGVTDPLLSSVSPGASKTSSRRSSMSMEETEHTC

[20] = target: T6, Polyadenylate-binding protein 1; assay: PABP1 MLLE–PAM2 binding inhibitor potency, dose response, biochemical, fluorescence polarization, FITC-PAM2 peptide (AID 602259); type: functional; settings: read-out: IC50_Mean
[21] = target: E3 ubiquitin-protein ligase Mdm2 (Homo sapiens, UniProt Q00987); assay: enhancers of MDM2-luciferase reporter signal, concentration-effect titration, project on inhibitors of MDM2 ubiquitin ligase, cellular assay, luminescent readout, 384-well plate format (AID 1394); type: functional;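 also: MDM2 E3 inhibitors raise luminescence so EC50 is for signal enhancement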
[22] = microbe, parasite or virus in culture; type: functional; settings: Mycobacterium tuberculosis
[23] = cytotoxicity toward NIH3T3 fibroblasts, dose response, counter-screen, cell-based, ATP luminescence, mouse fibroblasts (AID 2010); type: functional;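 also: cells exposed to compound for about 90 hours before reading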
[24] = inhibitors of intracellular T. cruzi replication, confirmation, NIH3T3 host cells, beta-gal luminescence (AID 2044); type: functional, cell-based;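 also: intracellular parasites grown in NIH/3T3 mouse fibroblasts as host cells; luminescent beta-galactosidase reporter signal from transgenic T. cruzi replicating inside host cells; inhibitors lower the luminescence signal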
[25] = target: Protein-tyrosine kinase 2-beta (Homo sapiens, UniProt Q14289);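 also: potency of inhibitors of PYK2 kinase phosphorylation of poly-GT substrate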
Sequence of Protein-tyrosine kinase 2-beta (Q14289 whole entry): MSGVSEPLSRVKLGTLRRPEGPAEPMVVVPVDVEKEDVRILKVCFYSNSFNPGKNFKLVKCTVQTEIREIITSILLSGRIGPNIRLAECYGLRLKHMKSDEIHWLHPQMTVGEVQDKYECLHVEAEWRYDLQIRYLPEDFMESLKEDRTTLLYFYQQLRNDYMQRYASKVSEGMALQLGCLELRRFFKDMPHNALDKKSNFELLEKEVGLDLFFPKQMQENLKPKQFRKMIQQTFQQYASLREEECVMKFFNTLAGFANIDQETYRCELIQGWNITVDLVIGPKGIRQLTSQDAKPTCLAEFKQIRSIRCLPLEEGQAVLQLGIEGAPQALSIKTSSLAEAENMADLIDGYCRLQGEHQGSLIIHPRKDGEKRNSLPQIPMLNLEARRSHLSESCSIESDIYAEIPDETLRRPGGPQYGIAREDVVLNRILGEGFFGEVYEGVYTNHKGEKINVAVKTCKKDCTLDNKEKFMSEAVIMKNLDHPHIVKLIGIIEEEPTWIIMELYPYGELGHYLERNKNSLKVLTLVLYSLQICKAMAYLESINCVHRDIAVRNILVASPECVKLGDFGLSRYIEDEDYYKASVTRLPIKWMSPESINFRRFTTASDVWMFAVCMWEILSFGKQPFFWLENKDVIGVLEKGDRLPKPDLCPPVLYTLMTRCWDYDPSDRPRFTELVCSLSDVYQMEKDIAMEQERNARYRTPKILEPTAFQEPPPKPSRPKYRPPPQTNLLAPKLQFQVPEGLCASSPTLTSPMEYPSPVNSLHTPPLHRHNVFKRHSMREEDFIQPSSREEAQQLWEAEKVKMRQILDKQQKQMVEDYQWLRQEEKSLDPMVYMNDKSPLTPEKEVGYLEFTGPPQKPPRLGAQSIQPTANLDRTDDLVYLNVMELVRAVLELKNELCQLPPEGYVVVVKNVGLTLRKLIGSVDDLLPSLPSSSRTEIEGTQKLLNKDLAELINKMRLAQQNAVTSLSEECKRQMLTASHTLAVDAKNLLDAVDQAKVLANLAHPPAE

T6 sequence (P11940 whole entry): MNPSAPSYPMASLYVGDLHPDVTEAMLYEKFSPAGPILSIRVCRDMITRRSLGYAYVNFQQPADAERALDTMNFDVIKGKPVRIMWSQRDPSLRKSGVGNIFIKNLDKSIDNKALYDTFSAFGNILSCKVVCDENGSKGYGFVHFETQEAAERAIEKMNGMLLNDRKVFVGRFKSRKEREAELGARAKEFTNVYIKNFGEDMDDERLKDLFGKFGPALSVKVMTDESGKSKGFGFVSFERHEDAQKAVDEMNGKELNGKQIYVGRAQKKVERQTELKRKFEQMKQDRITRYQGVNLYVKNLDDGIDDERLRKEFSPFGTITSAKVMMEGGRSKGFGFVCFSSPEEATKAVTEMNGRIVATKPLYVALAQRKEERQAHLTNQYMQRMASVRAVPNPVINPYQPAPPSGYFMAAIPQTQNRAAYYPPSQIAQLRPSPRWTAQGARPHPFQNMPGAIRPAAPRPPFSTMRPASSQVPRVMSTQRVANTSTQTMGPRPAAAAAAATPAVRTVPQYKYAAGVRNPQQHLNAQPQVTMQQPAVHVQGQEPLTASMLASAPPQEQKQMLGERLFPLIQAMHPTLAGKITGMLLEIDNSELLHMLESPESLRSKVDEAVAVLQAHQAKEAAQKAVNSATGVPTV
Sequence of Bifunctional protein GlmU (P9WMN3 whole entry): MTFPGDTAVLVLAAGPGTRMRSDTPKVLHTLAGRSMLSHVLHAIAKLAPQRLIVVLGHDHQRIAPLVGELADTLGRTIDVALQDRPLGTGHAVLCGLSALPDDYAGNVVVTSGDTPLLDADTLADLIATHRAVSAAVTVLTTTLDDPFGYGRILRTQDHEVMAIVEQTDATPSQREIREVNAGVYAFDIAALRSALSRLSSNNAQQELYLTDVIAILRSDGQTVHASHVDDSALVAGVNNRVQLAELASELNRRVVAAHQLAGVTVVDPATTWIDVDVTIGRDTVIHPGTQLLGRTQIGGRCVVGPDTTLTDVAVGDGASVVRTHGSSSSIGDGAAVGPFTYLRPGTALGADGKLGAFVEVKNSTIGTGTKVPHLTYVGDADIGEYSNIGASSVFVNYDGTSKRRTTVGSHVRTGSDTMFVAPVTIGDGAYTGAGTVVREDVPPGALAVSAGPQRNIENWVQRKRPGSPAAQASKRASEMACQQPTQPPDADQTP
Sequence of Cytochrome P450 2D6 (P10635 whole entry): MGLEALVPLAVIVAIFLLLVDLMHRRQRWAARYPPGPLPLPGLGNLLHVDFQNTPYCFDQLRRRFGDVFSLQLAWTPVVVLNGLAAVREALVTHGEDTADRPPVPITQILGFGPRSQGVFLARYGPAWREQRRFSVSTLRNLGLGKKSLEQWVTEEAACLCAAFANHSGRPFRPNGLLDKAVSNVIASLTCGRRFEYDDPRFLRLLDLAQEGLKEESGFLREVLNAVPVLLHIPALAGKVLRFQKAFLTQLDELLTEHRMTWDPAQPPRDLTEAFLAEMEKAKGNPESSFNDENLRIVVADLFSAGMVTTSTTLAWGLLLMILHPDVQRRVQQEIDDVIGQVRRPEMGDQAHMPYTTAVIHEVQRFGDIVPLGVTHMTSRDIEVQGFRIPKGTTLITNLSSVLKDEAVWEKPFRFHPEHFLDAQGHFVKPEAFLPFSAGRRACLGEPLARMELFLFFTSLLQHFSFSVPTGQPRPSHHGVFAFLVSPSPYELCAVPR
Sequence of Protein Tat (P04608 whole entry): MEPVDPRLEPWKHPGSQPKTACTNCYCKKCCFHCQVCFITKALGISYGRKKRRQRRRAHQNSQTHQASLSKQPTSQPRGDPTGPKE
Sequence of Cytochrome P450 3A4 (P08684 whole entry): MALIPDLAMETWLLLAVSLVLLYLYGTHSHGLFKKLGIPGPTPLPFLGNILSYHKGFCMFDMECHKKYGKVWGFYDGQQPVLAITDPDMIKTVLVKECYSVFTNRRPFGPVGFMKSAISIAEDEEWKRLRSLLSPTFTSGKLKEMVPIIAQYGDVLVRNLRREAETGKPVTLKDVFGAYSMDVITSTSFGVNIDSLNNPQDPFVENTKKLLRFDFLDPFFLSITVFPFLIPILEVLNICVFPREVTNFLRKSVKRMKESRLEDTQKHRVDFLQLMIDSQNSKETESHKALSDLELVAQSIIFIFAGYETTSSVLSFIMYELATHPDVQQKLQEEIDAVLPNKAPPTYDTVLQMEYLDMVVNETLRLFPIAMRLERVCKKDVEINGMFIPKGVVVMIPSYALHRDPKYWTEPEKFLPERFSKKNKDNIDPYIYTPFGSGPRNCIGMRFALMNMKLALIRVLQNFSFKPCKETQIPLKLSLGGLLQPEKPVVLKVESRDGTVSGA
Sequence of E3 ubiquitin-protein ligase Mdm2 (Q00987 whole entry): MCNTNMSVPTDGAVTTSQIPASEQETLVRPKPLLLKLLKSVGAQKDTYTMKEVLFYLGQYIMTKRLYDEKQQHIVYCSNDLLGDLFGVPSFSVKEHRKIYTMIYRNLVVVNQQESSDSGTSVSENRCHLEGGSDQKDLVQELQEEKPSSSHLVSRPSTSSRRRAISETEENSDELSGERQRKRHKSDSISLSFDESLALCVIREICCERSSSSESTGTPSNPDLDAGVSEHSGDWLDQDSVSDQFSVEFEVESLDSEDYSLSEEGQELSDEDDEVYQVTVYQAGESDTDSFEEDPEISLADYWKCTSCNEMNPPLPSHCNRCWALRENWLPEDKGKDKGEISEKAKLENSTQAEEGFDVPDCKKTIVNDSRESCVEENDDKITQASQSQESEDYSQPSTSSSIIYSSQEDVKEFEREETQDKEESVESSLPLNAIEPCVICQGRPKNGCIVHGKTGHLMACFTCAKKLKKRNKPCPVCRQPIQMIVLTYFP
Sequence of Genome polyprotein (P29990 2492-3391 limits assumed): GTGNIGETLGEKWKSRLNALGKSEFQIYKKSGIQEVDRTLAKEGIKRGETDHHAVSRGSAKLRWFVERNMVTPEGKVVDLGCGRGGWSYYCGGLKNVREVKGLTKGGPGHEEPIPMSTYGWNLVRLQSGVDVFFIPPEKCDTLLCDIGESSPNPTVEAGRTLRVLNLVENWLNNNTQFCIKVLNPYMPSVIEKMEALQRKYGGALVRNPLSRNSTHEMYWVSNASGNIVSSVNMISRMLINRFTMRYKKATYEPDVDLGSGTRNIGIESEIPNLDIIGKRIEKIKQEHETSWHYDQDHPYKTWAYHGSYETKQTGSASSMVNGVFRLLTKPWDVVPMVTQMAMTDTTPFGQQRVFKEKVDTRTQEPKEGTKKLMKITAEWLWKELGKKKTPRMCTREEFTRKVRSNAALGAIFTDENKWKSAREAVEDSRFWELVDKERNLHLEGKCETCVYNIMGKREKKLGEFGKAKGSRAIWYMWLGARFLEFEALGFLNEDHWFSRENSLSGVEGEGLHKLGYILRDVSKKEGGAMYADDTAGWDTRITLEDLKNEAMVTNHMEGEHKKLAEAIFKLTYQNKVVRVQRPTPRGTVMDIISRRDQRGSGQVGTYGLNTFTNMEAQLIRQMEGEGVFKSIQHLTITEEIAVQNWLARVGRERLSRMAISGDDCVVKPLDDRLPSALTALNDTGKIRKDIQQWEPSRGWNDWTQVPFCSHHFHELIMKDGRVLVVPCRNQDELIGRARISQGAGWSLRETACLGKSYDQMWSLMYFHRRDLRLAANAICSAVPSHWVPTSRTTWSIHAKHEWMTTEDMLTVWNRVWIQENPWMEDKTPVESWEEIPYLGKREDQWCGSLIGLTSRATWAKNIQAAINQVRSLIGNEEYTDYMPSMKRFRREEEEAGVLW

COc1ncccc1-c1nnn(-c2ccc(C)cc2)n1
IC50 (Bcl-2-related protein A1 [1]): > 100 µM (not active)
IC50 (Bcl-2-related protein A1 [2]): > 100 µM (not active)

COc1ccc(-c2cc(C(F)(F)F)n3ncc(C(=O)N4CCCCC4c4cccnc4)c3n2)cc1 (stereo unspecified)
IC50 [3]: > 100 µM (active)

COC(=O)C(CC(=O)c1ccc(Br)cc1)n1ccnc1 (stereo unspecified)
EC50 [4]: 14.4 µM (active)
EC50 [5]: 15.5 µM (active)

O=C(COC(=O)Cc1ccc(F)cc1)NCc1ccco1
IC50 [6]: > 109 µM (inactive)
IC50 [7]: > 83.2 µM (inactive)

Cc1nnc(SCC(=O)c2cc(C)n(C3CC3)c2C)s1
EC50 (H4): > 120 µM (not active)
EC50 [8]: < 0.1 µM (active)
EC50 [9]: 7.62 µM (active)
EC50 [10]: 1.88 µM (active)
EC50 [11]: 0.594 µM (active)
EC50 [12]: 0.266 µM (active)

COc1ccc(N2C(=O)C(Cl)=C(Nc3ccccc3O)C2=O)cc1
EC50 [13]: > 300 µM (not active)
IC50 [14]: 53.6 µM (active)
IC50 (Genome polyprotein): 78 µM (active)
EC50 [15]: 24.5 µM (active)

O=C(N/N=C/c1ccc(F)cc1)c1ccc(Br)cc1
IC50 [16]: > 50 µM (active)
AC50 (Cytochrome P450 3A4): 22.4 µM (inconclusive)
AC50 (Cytochrome P450 2D6): 3.55 µM (inconclusive)

CCCSc1nnc(NC(=O)c2sc3nc(-c4cccs4)ccc3c2N)s1
IC50 [14]: 167 µM (active)
CC50 [17]: 46 µM (active)

CC(=O)c1cccc(NC(=O)CN2C(=O)NC3(CCCCCCC3)C2=O)c1
IC50 (Protein Tat): > 100 µM (active)
IC50 (Estrogen receptor): 48.2 µM (not active)

O=C(Cc1ccc(-c2ccccc2)cc1)NC(c1ccccc1)c1ccccc1
IC50 [6]: > 109 µM (inactive)
IC50 [7]: > 83.3 µM (inactive)

COc1ccc(Cl)c2c3n[nH]c(SCc4ccccn4)nc-3nc12
EC50 (H4): 25.2 µM (active)
EC50 [8]: < 0.1 µM (active)
EC50 [10]: 0.249 µM (active)
EC50 [11]: 0.391 µM (active)
EC50 [12]: 0.287 µM (active)

COC(=O)CSC1=C(C#N)C(=O)NC(c2ccccc2)S1 (stereo unspecified)
IC50 [18]: > 66 µM (inactive)
AC50 [19]: 7.06 µM (active)
IC50 [20]: > 66 µM (inactive)
EC50 [21]: 2.15 µM (active)

Cc1nc2cc(C(F)(F)F)ccc2n1C1CCN(Cc2nnnn2Cc2ccc3c(c2)OCO3)CC1
EC50 [4]: 8.93 µM (active)
CC50 [22]: > 40 µM (active)
EC50 [5]: 8.54 µM (active)

CN1CCN(c2nc(-c3ccc(Br)cc3)nnc2-c2ccccc2)CC1
EC50 (cells): 0.008 µM (active)
EC50 [23]: > 60 µM (inconclusive)
EC50 [24]: < 0.1 µM (active)

O=Cc1ccc2noc(-c3ccc(F)cc3)c2c1
IC50 [3]: > 100 µM (active)
IC50 [25]: > 69.5 µM (not active)

CCc1sc(C(=O)NC2CCN(C)CC2)cc1Br
EC50 (cells): 0.026 µM (active)
EC50 [23]: > 60 µM (not active)
EC50 [24]: < 0.1 µM (active)
